For assay [1], the system named is Hyp1-NLuc Plasmodium falciparum-infected erythrocytes (new permeability pathway, NPP). Briefly: microbe, parasite or virus in culture. Particulars: Erythrocyte, 0.33 h, read-out: Mean RLU at 28 min (As % of DMSO control).
For assay [2] the test system is unchanged. The assay can be described thus: microbe, parasite or virus in culture. As to conditions: Erythrocyte, 0.33 h, read-out: % of control remaining.

Read-outs that look alike come from different tables or passages of the source.

As for `O=C(NC1CCN(Cc2ccccc2)CC1)c1cc(-c2cccnc2)nc2ccc(Cl)cc12` [MMV020490], the activity at 2 µM in assay [1] was found to be 101%; in assay [2], 98.9%.

With `Oc1c2c(nc3ccccc13)CCCC2` [MMV665843], the values for the activity at 2 µM in assay [1] and in assay [2] were 109% and 111%, respectively.

With `OC1CCCCC1C1(NC(=S)Nc2ccccc2)CCCCC1` (centres unmarked) [MMV665980], the activity at 2 µM in assay [1] and in assay [2] was 101% in each case.

In the case of `COc1ccc2nc(C)cc(Nc3ccccc3O)c2c1` [MMV274073], the activity at 2 µM in assay [1] and in assay [2] was 110% in each case.

`CCOc1c(Br)cc(C2C(C(=O)OC)=CN(C)C=C2C(=O)OC)cc1OC` [MMV006764]: the figures for the activity at 2 µM in assay [1] and in assay [2] were 80.4% and 85.8%, respectively.

On to `CSc1ccccc1C(=O)Nc1nc(-c2ccccn2)cs1` [MMV001246], for which the activity at 2 µM in assay [1] worked out at 112%; in assay [2], 106%.

As to `COc1ccc(C2c3ccc4ccccc4c3Oc3ncn(CCCN(C)C)c(=N)c32)cc1` (centres unmarked) [MMV667491], the activity at 2 µM in assay [1] came out at 87.3%; in assay [2], 69.1%.

As for `Oc1ccc(C(=C(Cl)Cl)c2ccc(O)cc2)cc1` [MMV665949], the activity at 2 µM in assay [1] turned out to be 90%; in assay [2] it was 95.5%.

Consider `CCOc1cc(Cl)c(C(C)NC(=O)c2ccccc2)cc1OCC` (centres unmarked) [MMV665800], for which the activity at 2 µM in assay [1] came out at 100%; in assay [2], 111%.

For the compound `COc1cccc(O)c1CN1CCC2(CCCN(Cc3ccc(F)cc3)C2)C1` (centres unmarked) [MMV666061], the values for the activity at 2 µM in assay [1] and in assay [2] were 111% and 126%, respectively.

Consider `Cc1ccc(Nc2nc(-c3ccccn3)cs2)cc1` [MMV007907], for which the activity at 2 µM was 106% in assay [1] and 103% in assay [2].

As for `Cc1cc(N2CCN(C3CCCC3)CC2)n2c(nc3ccccc32)c1C#N` [MMV006706], the activity at 2 µM worked out at 118% in assay [1] and 117% in assay [2].

On to `COc1ccc(C=C2SC(Nc3ccc(F)cc3)=NC2=O)c(OC)c1` [MMV084434], for which the activity at 2 µM was determined as 36.5% in assay [1] and 27.1% in assay [2].

In the case of `Cc1ccc(C(=O)c2oc3ccc4c(C)cc(=O)oc4c3c2C)cc1` [MMV086103], the activity at 2 µM in assay [1] amounted to 94.6%; in assay [2], 95.7%.

On to `CCCc1c(C)nc2ccccc2c1O` [MMV666081], for which the activity at 2 µM stood at 105% in assay [1] and 115% in assay [2].

Consider `CCOc1cc2c(cc1OCC)C(c1cc(C)c(O)c(C)c1)NCC2` (centres unmarked) [MMV000483], for which the activity at 2 µM in assay [1] was found to be 103%; in assay [2], 102%.

Consider `COc1ccc(-c2cc(=O)oc3c4c(ccc23)OCN(Cc2ccc(F)cc2)C4)cc1` [MMV000604], for which the activity at 2 µM in assay [1] was determined as 104%; in assay [2], 106%.

Turning to `CCOc1cc2c(cc1OCC)C(c1cc(OC)c(O)cc1Cl)NCC2` (centres unmarked) [MMV008956], the activity at 2 µM in assay [1] worked out at 102%; in assay [2], 100%.

For `CC1CC2=C(CC1CNCCCN(C)C)C(C)(C)CCC2` (centres unmarked) [MMV665830], the activity at 2 µM in assay [1] came to 105%; in assay [2], 104%.

`N=c1n(CCN2CCCCC2)c2ccccc2n1CC(O)c1cccc(Br)c1` (centres unmarked) [MMV665902]: the figures for the activity at 2 µM in assay [1] and in assay [2] were 101% and 115%, respectively.

For the compound `O=C(NCC1Cc2cccc(-c3ccncc3)c2O1)c1csc2c1CCCC2` (centres unmarked) [MMV665954], the activity at 2 µM in assay [1] was 104%; in assay [2], 117%.

As to `O=C(Nc1ccc(CN2CCOCC2)cc1)c1ccc(-c2cc(Cl)ccc2Cl)o1` [MMV020651], the figures for the activity at 2 µM in assay [1] and in assay [2] were 105% and 103%, respectively.

`CCOc1ccc(C2N(C)c3ccccc3N2C)cc1` [MMV075490]: the activity at 2 µM amounted to 117% in assay [1] and 116% in assay [2].

In the case of `COc1ccc(N2CCN(C(CNC(=O)C3CCCCC3)c3ccc4c(c3)OCO4)CC2)cc1` (centres unmarked) [MMV019662], the activity at 2 µM in assay [1] turned out to be 103%; in assay [2], 114%.

In the case of `O=C1CC(O)(C(F)(F)C(F)(F)F)Oc2ccccc21` (centres unmarked) [MMV000972], the values for the activity at 2 µM in assay [1] and in assay [2] were 90.2% and 82.2%, respectively.

`O=C(Nc1ccc(C23CC4CC(CC(c5ccccc5)(C4)C2)C3)cc1)c1cccs1` [MMV007574]: the results for the activity at 2 µM in assay [1] and in assay [2] were 106% and 111%, respectively.

Take `CCOC(=O)c1cnc2ccc(Cl)cc2c1NCCCN(C)C` [MMV006882]: the activity at 2 µM amounted to 106% in assay [1] and 110% in assay [2].

With `COc1cc2cc(C(=O)Nc3ccccc3)c(N)nc2cc1OC` [MMV006767], the activity at 2 µM in assay [1] and in assay [2] was 119% throughout.

Take `COc1ccc(-c2c(C)nn3c(N)c(C#N)cnc23)cc1OC` [MMV396797]: the activity at 2 µM in assay [1] turned out to be 104%; in assay [2] it was 89.6%.

As for `Cc1cc(C)cc(Nc2cc(C)nc3nc(C(F)(F)F)nn23)c1` [MMV011259], the activity at 2 µM in assay [1] was found to be 101%; in assay [2], 98.6%.

Turning to `O=c1cc(NC2CCN(CCCc3ccccc3)CC2)c2cc(Cl)ccc2o1` [MMV665786], the activity at 2 µM in assay [1] is 96.5%; in assay [2], 89.1%.

On to `O=C1c2ccccc2-c2nnc(-c3ccc(Br)cc3)cc21` [MMV665934], for which the activity at 2 µM in assay [1] is 92.6%; in assay [2], 97.2%.

Turning to `CCc1ccc(CNCC(O)c2ccccc2)cc1` (centres unmarked) [MMV665812], the activity at 2 µM in assay [1] was found to be 95.4%; in assay [2], 96.2%.

With `O=C(Nc1ccsc1C(=O)NC1CCCCC1)c1ccc(F)cc1` [MMV665939], the activity at 2 µM in assay [1] is 104%; in assay [2] it was 115%.

For `CN(C)CCCNc1c2ccccc2nc2ccccc12` [MMV000448], the activity at 2 µM in assay [1] and in assay [2] was 102% each time.

As for `CCOc1ccc(Nc2c3ccccc3nc3ccccc23)cc1` [MMV000304], the values for the activity at 2 µM in assay [1] and in assay [2] were 107% and 109%, respectively.

Regarding `Oc1c2c(nc3cc(-c4ccccc4)nn13)CCCC2` [MMV008270], the results for the activity at 2 µM in assay [1] and in assay [2] were 100% and 56.9%, respectively.

In the case of `CCOc1ccc(CCNC(=O)c2cccs2)cc1OCC` [MMV007978], the results for the activity at 2 µM in assay [1] and in assay [2] were 112% and 114%, respectively.

`c1ccc2cc3c(Nc4ccc(N5CCOCC5)cc4)ccnc3cc2c1` [MMV006861]: the results for the activity at 2 µM in assay [1] and in assay [2] were 109% and 102%, respectively.

For `Cc1cc(=O)oc2c1ccc1oc(C(=O)c3ccccc3)c(C)c12` [MMV006753], the values for the activity at 2 µM in assay [1] and in assay [2] were 103% and 108%, respectively.

In the case of `CCn1c(CN2CCN(Cc3ccccc3)CC2)nc2cc(NC(=O)c3cccs3)ccc21` [MMV020439], the activity at 2 µM amounted to 20.1% in assay [1] and 18.4% in assay [2].

`O=C(CSc1nccn2nc(-c3ccccc3)cc12)Nc1cc(C(F)(F)F)ccc1Cl` [MMV396678]: the activity at 2 µM in assay [1] and in assay [2] was 107% throughout.

Regarding `CN1c2ccccc2N(C)C1c1ccc2c(c1)OCO2` [MMV666009], the activity at 2 µM was 104% in assay [1] and 114% in assay [2].

As for `Cn1c(=O)n(C)c2cc(CNCCNc3ccnc4cc(Cl)ccc34)ccc21` [MMV665875], the activity at 2 µM turned out to be 95.9% in assay [1] and 88.8% in assay [2].

Regarding `CN(C)c1ccc(N=Cc2ccc(N3CCOCC3)cc2)cc1` [MMV073843], the activity at 2 µM in assay [1] and in assay [2] was 104% each time.

With `COc1ccc(C(=O)Nc2nonc2-c2ccc(OC)c(OC)c2)cc1Cl` [MMV011567], the activity at 2 µM in assay [1] and in assay [2] was 103% each time.

Take `Oc1ccc(Br)cc1CN1CCN(Cc2cccc(F)c2)CC1` [MMV000356]: the activity at 2 µM was found to be 101% in assay [1] and 98.9% in assay [2].

Take `CCc1c(C)c(=N)c2ccccc2n1C` [MMV006278]: the values for the activity at 2 µM in assay [1] and in assay [2] were 98.8% and 99.6%, respectively.

For the compound `Cc1sc2ncnc(Sc3nc4ccccc4[nH]3)c2c1C` [MMV019266], the activity at 2 µM in assay [1] and in assay [2] was 109% each time.

`COCCN(C(=O)Cc1cccs1)C(C(=O)NCc1ccc(OC)cc1)c1ccc(C(C)C)cc1` (centres unmarked) [MMV666105]: the results for the activity at 2 µM in assay [1] and in assay [2] were 100% and 113%, respectively.

Turning to `CCOc1ccccc1CNC(=O)C1c2ccccc2C(=O)N(CC(C)C)C1c1cccs1` (centres unmarked) [MMV000653], the activity at 2 µM in assay [1] worked out at 105%; in assay [2], 119%.

On to `COc1ccc(NC(=O)C2c3ccccc3C(=O)N(CC(C)C)C2c2cccs2)cc1Cl` (centres unmarked) [MMV000642], for which the activity at 2 µM is 94.6% in assay [1] and 94% in assay [2].

Consider `CCCc1c(CC)c(=N)c2ccccc2n1C` [MMV008416], for which the activity at 2 µM in assay [1] is 98.9%; in assay [2], 100%.

For the compound `Oc1c(C(Nc2ccccn2)c2cccc(Oc3ccccc3)c2)ccc2cccnc12` (centres unmarked) [MMV665814], the activity at 2 µM stood at 98.8% in assay [1] and 98.6% in assay [2].

As for `Cc1ccc(C)c(Cn2c(N3CCC(C(=O)NCc4cccs4)CC3)nc3ccccc32)c1` [MMV019741], the activity at 2 µM came to 104% in assay [1] and 112% in assay [2].

Regarding `Nc1nc(Nc2cccc(F)c2)nc2ccccc12` [MMV080034], the activity at 2 µM in assay [1] was 93.1%; in assay [2] it was 94.5%.

`COc1ccc(C=C2SC(Nc3ccccc3)=NC2=O)cc1` [MMV665836]: the activity at 2 µM in assay [1] amounted to 86.5%; in assay [2], 55.9%.

Take `CC(=O)c1ccc(NC(=O)CSc2nc(-c3ccccc3Cl)ns2)cc1` [MMV666124]: the activity at 2 µM in assay [1] is 96.8%; in assay [2], 69.6%.

Regarding `O=C(Nc1ccc(-c2nc3ccccc3[nH]2)cc1)c1ccc(Cl)c(Cl)c1` [MMV665840], the activity at 2 µM in assay [1] worked out at 109%; in assay [2], 107%.

For `CCc1ccc(Nc2cc(C)nc3nc(C)nn23)cc1` [MMV007374], the activity at 2 µM in assay [1] turned out to be 113%; in assay [2] it was 114%.

For `O=[N+]([O-])c1ccc(C=NNc2nc3ccccc3[nH]2)cc1` [MMV666607], the activity at 2 µM was 103% in assay [1] and 102% in assay [2].

Source of the values: PMC5118696, “Identification of inhibitors that dually target the new permeability pathway and dihydroorotate dehydrogenase in the blood stage of Plasmodium falciparum” (Scientific Reports, 2016).
